According to ChEMBL document CHEMBL1127360, “Antipodal alpha-N-(methyl through decyl)-N-normetazocines (5,9 alpha-dimethyl-2'-hydroxy-6,7-benzomorphans): in vitro and in vivo properties” (J Med Chem, 1994):
Calls of active or inactive are those of the source. The calls are words filed in the database; no cut-off is given here.

Columns and labels:
Cavia porcellus [1] = species on record: Cavia porcellus; test: Ratio of potencies against sigma receptor to that of Mu receptor of rat
Cercopithecidae = test: Ratio of potencies against Mu receptor of monkey to that of rat
Mus musculus [2] = test: Compound was tested in vivo for its narcotic antagonistic activity of the antinociceptive effect in mouse; assay type: functional
Mus musculus [3] = test: In vivo antinociceptive activity was tested through injecting 2 mg/kg ip phenylquinone, activity calculated by total number of abdominal-stretches; assay type: functional, Abdomen; conditions: route intraperitoneal
Glutamate NMDA receptor = test: Inhibition using [3H]TCP in homogenate of rat brain; assay type: tissue-based
Cavia porcellus [4] = species on record: Cavia porcellus; test: Ratio of potencies against PCP receptor to that of sigma receptor
[5] = target: T1, Glutamate NMDA receptor (Rattus norvegicus) (UniProt P35439+Q00959+Q00960+Q00961+Q62645+Q8VHN2+Q9R1M7); test: Ratio of potencies against PCP receptor to that of Mu receptor of rat; assay type: protein-complex assay
[6] = target: T1, Glutamate NMDA receptor (Rattus norvegicus); test: Ratio of potencies of (+) and (-) enantiomers against PCP in rats
[7] = target: Mu-type opioid receptor (Homo sapiens) (UniProt P35372); test: Ratio of potencies against Mu receptor to that of kappa receptor of monkey; conditions: Cercopithecidae; target entry is the homologue from another species
Mu-type opioid receptor (Homo sapiens), sequence (P35372 whole entry): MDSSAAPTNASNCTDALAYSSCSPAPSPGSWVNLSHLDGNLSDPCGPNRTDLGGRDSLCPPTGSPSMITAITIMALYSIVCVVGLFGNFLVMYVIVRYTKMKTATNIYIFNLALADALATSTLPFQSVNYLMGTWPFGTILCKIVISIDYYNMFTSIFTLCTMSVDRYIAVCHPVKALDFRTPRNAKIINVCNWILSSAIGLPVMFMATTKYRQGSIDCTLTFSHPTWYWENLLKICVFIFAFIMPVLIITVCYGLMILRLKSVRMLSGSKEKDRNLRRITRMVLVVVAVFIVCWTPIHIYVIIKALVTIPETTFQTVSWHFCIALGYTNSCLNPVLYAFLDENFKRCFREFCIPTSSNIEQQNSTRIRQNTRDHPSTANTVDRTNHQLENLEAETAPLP

Mu-type opioid receptor = Mu-type opioid receptor (Rattus norvegicus, UniProt P33535); test: Inhibition against mu receptor using [3H]DAMGO in homogenate of rat brain cerebellum; assay type: tissue-based
Mu-type opioid receptor, sequence (P33535 whole entry): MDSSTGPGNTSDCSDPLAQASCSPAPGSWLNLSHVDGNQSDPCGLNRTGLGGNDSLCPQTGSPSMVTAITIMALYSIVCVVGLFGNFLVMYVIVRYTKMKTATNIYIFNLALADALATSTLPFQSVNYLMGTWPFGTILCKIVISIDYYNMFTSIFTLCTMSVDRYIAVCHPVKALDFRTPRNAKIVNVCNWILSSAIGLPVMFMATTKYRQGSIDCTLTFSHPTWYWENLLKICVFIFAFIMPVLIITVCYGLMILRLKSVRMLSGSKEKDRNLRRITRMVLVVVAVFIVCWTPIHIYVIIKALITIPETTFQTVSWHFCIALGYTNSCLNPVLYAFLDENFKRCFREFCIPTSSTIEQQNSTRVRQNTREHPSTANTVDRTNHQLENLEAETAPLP

[8] = target: Mu-type opioid receptor (Homo sapiens) (UniProt P35372); test: Ratio of potencies of (+) and (-) enantiomers against Mu receptors in monkeys; conditions: Cercopithecidae; target entry is the homologue from another species
[9] = target: Mu-type opioid receptor (Rattus norvegicus) (UniProt P33535); test: Ratio of potencies of (+) and (-) enantiomers against Mu receptors in Rats
Mu-type opioid receptor (Rattus norvegicus), sequence (P33535 whole entry): as above

Mus musculus [10] = test: (§1) In vivo antinociceptive activity was tested through tail flick (TF) with this compound in mouse; assay type: functional, organism-based
Mus musculus [11] = test: In vivo antinociceptive activity was tested through hot plate (HP) and counting jumps or paw licks; assay type: functional, organism-based
[12] = target: Kappa-type opioid receptor (Homo sapiens) (UniProt P41145); test: Ratio of potencies of (+) and (-) enantiomers against kappa receptors in monkeys; conditions: Cercopithecidae; target entry is the homologue from another species
Kappa-type opioid receptor (Homo sapiens), sequence (P41145 whole entry): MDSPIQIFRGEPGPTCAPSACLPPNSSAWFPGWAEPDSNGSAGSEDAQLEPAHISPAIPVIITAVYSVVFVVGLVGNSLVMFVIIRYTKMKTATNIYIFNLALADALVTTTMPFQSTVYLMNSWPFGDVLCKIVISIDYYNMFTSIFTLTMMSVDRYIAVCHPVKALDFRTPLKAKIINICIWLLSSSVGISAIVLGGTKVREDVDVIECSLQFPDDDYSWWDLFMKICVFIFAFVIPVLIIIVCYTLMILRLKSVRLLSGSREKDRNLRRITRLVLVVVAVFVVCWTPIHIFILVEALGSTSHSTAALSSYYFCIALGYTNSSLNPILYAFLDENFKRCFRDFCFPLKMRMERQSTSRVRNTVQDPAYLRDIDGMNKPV

Mus musculus [13] = test: In vivo for its narcotic antagonistic activity of the antinociceptive effect in mouse; assay type: functional, organism-based
Mus musculus [14] = test: In vivo antinociceptive activity through injecting 2 mg/kg ip phenylquinone, activity calculated by total number of abdominal-stretches per group counted over a 1 min period; Inactive; assay type: functional, organism-based; set-up: dose 2 mg/kg
Mus musculus [15] = test: In vivo antinociceptive activity through hot plate (HP) by placing mouse on hot plate, and calculating number of times it jumps or licks its paw in 5 seconds; assay type: functional
Mus musculus [16] = test: as §1; assay type: functional; set-up: unit not given beside the values
Mus musculus [17] = test: In vivo antinociceptive activity at 30 mg/kg was tested through injecting 2 mg/kg ip phenylquinone, activity calculated by total number of abdominal-stretches per group counted over a 1 min period; assay type: functional
Mus musculus [18] = test: In vivo antinociceptive activity was tested through tail flick (TF) with this compound in mouse at 30 mg/kg concentration; assay type: functional

Row | SMILES | Ratio (Cavia porcellus [1]) | Ratio (Cercopithecidae) | Activity (Mus musculus [3]) | Ki (Glutamate NMDA receptor) | Ratio (Cavia porcellus [4]) | Ratio [5] | Ratio [6] | Ratio [7] | Ki (Mu-type opioid receptor) | Ratio [8] | Ratio [9] | Activity (Mus musculus [10]) | Activity (Mus musculus [11]) | Ratio [12] | Activity (Mus musculus [13]) | Activity (Mus musculus [15]) | Activity (Mus musculus [16]) | also measured
1 | CCCN1CC[C@]2(C)c3cc(O)ccc3CC1[C@@H]2C | 97 | 0.2 | 22 | 264 nM | 0.4 | 35 | 2.3 | 1.3 | 7.6 nM | 629 | 687 | inactive | inactive | 226 | – | – | – | Activity (Mus musculus [2]): 0.4
2 | CCN1CC[C@@]2(C)c3cc(O)ccc3CC1[C@H]2C | – | – | 33.5 | 130 nM | – | – | – | – | 10000 nM | – | – | inactive | inactive | – | inactive | – | – | –
3 | CCCCCCCCCCN1CC[C@]2(C)c3cc(O)ccc3CC1[C@H]2C | 0.02 | 0.2 | – | 4190 nM | 61 | 0.9 | – | 3 | 4620 nM | – | – | inactive | inactive | – | inactive | – | – | Activity (Mus musculus [14]): inactive
4 | C[C@H]1C2Cc3ccc(O)cc3[C@@]1(C)CCN2C | 1640 | 0.4 | 0.3 | 1190 nM | 0.07 | 108 | 0.03 | 4 | 11 nM | 328 | 452 | – | – | 222 | inactive | 0.6 | 0.8 | –
5 | CCCCCCCCN1CC[C@]2(C)c3cc(O)ccc3CC1[C@@H]2C | 1.2 | 2 | 0.5 | 7970 nM | 228 | 266 | 0.1 | 1.3 | 30 nM | 2.7 | 17 | – | – | 29 | inactive | 5.4 | 10.3 | –
6 | CCCCCCN1CC[C@]2(C)c3cc(O)ccc3CC1[C@@H]2C | 8.5 | 8.3 | 0.13 | 3350 nM | 84 | 712 | 2.2 | 1.1 | 4.7 nM | 8.2 | 169 | – | – | 53 | inactive | 2.4 | 1.1 | –
7 | CCCCCN1CC[C@@]2(C)c3cc(O)ccc3CC1[C@H]2C | – | – | 1 | 1700 nM | – | – | – | – | 1740 nM | – | – | – | – | – | inactive | 38 | 20.4 | –
8 | CCCCCCCCCN1CC[C@]2(C)c3cc(O)ccc3CC1[C@H]2C | 0.009 | 0.1 | – | 4150 nM | 346 | 3 | – | 18 | 1380 nM | – | – | inactive | inactive | – | inactive | – | – | Activity (Mus musculus [14]): inactive
9 | CCCCCCCN1CC[C@]2(C)c3cc(O)ccc3CC1[C@@H]2C | 5.6 | 3.1 | 0.13 | 5630 nM | 115 | 640 | 0.5 | 1.2 | 8.8 nM | 9.6 | 28 | – | – | 23 | inactive | 2.4 | 1.7 | –
10 | CCCCCCCCCCN1CC[C@]2(C)c3cc(O)ccc3CC1[C@@H]2C | 0.08 | 2 | – | 10000 nM | 263 | 20 | 0.4 | 2.3 | 507 nM | 0.8 | 9.1 | inactive | inactive | 1 | inactive | – | – | Activity (Mus musculus [14]): inactive
11 | CCCCN1CC[C@@]2(C)c3cc(O)ccc3CC1[C@H]2C | 0.002 | 0.4 | – | 893 nM | 149 | 0.3 | – | 0.6 | 2880 nM | – | – | inactive | inactive | – | inactive | – | – | Inhibition (Mus musculus [17]): 43%
12 | CCCCCCCCN1CC[C@]2(C)c3cc(O)ccc3CC1[C@H]2C | 0.005 | 0.3 | 7.8 | 786 nM | 281 | 1.5 | – | 14.2 | 522 nM | – | – | – | – | – | inactive | 11.1 | – | inhibition in vivo at 30 mg/kg (Mus musculus [18]): 14%
13 | CCCCCN1CC[C@]2(C)c3cc(O)ccc3CC1[C@@H]2C | – | – | 0.2 | 2470 nM | – | – | – | – | 16 nM | – | – | – | – | – | inactive | 2.4 | 1.3 | –
14 | CCCCCCCCCN1CC[C@]2(C)c3cc(O)ccc3CC1[C@@H]2C | 0.2 | 1.2 | – | 6170 nM | 193 | 41 | 0.7 | 3.9 | 151 nM | 0.7 | 9.1 | inactive | inactive | 3.2 | inactive | – | – | Activity (Mus musculus [14]): inactive
15 | CCCCCCN1CC[C@@]2(C)c3cc(O)ccc3CC1[C@H]2C | 0.003 | 0.4 | 5.6 | 7300 nM | 3180 | 9.2 | – | 7.1 | 795 nM | – | – | – | inactive | – | inactive | – | 21.3 | –
16 | CCCCCCCN1CC[C@]2(C)c3cc(O)ccc3CC1[C@H]2C | 0.008 | 1.1 | 3.5 | 2570 nM | 1350 | 11 | – | 2.8 | 243 nM | – | – | – | – | – | inactive | 11.5 | 12.9 | –
